Measured values taken from ChEMBL document CHEMBL1140941 (J Med Chem, 2009).
Activity calls are given as the source filed them. The rule behind the calls is not given here.

Tests used:
[1] = target: Nuclear receptor subfamily 1 group I member 2 (Homo sapiens, UniProt O75469); assay: Agonist activity at SXR expressed in african green monkey CV1 cells co-expressing MH100 up to 10 uM by luciferase reporter gene assay relative to control; type: functional, cell-based; details: cv-1
[2] = target: Estrogen receptor beta (Homo sapiens) (UniProt Q92731); assay: Agonist activity at gal-ERbeta expressed in african green monkey CV1 cells co-expressing MH100 by luciferase reporter gene assay; type: functional, cell-based; details: CV-1
Estrogen receptor beta (Homo sapiens), sequence (Q92731 whole entry): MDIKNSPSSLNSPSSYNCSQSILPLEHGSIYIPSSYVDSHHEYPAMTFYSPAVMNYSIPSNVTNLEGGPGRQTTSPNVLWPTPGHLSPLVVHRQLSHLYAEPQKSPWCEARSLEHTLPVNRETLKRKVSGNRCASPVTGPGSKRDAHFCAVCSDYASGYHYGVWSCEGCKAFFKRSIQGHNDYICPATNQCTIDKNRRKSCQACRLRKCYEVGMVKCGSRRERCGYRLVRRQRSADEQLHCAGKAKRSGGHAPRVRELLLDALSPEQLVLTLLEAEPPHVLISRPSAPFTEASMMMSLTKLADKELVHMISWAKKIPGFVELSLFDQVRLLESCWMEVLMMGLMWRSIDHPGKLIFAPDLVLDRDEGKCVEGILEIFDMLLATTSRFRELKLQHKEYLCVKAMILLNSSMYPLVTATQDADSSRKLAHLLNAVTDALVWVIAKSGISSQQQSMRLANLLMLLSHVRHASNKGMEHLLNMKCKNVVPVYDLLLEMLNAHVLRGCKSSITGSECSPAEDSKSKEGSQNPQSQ

[3] = target: Steroid hormone receptor ERR1 (Homo sapiens) (UniProt P11474); assay: Antagonist activity at ERRalpha expressed in african green monkey CV1 cells by luciferase reporter gene assay; type: functional, cell-based; details: CV-1
Steroid hormone receptor ERR1 (Homo sapiens), sequence (P11474 whole entry): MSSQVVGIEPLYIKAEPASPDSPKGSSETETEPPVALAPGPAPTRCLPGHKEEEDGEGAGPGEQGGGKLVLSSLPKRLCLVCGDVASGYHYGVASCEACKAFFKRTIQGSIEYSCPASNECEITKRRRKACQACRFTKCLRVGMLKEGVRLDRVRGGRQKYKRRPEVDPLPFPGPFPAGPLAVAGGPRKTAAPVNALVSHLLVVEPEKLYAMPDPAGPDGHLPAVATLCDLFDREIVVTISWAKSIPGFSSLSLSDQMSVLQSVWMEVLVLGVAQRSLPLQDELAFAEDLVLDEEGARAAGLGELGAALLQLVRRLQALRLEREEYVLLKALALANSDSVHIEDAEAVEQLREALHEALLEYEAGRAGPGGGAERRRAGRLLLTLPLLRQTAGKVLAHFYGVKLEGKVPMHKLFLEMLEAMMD

[4] = Half life in CD rat at 3 mg/kg, iv; type: ADME, organism-based; parameters: dose 3 mg/kg, route intravenous; details: in vivo
[5] = target: T1, Peroxisome proliferator-activated receptor alpha (Homo sapiens) (UniProt Q07869); assay: Antagonist activity at PPARalpha expressed in african green monkey CV1 cells co-expressing MH100 by luciferase reporter gene assay; type: functional, cell-based; details: CV-1
T1 sequence (whole entry): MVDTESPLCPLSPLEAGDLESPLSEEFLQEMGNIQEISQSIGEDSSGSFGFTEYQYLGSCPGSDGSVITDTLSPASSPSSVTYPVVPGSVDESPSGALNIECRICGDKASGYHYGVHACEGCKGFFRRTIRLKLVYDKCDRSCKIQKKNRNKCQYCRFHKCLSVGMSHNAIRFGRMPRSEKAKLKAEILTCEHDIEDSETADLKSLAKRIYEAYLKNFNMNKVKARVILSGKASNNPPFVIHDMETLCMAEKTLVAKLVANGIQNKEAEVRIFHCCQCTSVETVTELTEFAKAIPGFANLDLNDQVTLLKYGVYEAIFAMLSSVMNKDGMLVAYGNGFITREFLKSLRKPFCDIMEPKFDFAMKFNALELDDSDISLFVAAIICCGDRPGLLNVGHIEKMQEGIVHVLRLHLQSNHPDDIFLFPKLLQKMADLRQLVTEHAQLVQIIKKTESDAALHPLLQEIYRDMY

[6] = Cmax in CD rat at 3 mg/kg, iv; type: ADME, organism-based; parameters: dose 3 mg/kg, route intravenous; details: in vivo
[7] = system: Mus musculus; assay: Reduction of plasma total cholesterol level in C57BL/6 mouse at 10 mg/kg, po administered for 7 days measured after 3 hrs; type: ADME, organism-based; parameters: dose 10 mg/kg, route oral; details: in vivo
[8] = target: Retinoic acid receptor RXR-alpha (Homo sapiens) (UniProt P19793); assay: Agonist activity at RXRalpha-LBD expressed in african green monkey CV1 cells co-expressing MH100 by luciferase reporter gene assay; type: functional, cell-based; details: CV-1
Retinoic acid receptor RXR-alpha (Homo sapiens), sequence (P19793 whole entry, the tested form may be a part): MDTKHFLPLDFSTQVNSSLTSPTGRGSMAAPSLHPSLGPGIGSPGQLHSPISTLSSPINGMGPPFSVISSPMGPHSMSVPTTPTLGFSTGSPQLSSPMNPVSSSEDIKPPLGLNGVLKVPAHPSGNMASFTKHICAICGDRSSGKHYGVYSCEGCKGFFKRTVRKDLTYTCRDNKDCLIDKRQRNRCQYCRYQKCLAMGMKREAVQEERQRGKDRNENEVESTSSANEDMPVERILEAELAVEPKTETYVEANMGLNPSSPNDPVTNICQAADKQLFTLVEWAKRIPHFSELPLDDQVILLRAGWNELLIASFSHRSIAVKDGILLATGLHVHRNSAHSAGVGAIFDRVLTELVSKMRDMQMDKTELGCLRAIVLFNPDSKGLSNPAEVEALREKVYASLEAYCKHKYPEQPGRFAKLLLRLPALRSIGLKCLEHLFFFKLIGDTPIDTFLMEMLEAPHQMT

[9] = Tmax in CD rat at 3 mg/kg, iv; type: ADME, organism-based; parameters: dose 3 mg/kg, route intravenous; details: in vivo
[10] = system: Mus musculus; assay: Reduction of plasma total cholesterol level in western diet-induced hyperlipidemia LDLR knockout mouse model at 1 mg/kg, po administered for 6 weeks; type: functional; parameters: scale not given: the % may be the effect or the level left
[11] = target: T1, Peroxisome proliferator-activated receptor alpha (Homo sapiens); assay: Agonist activity at PPARalpha expressed in african green monkey CV1 cells co-expressing MH100 by luciferase reporter gene assay; type: functional, cell-based; details: CV-1
[12] = target: T2, Progesterone receptor (Homo sapiens) (UniProt P06401); assay: Agonist activity at gal-PR expressed in african green monkey CV1 cells co-expressing MH100 up to 10 uM by luciferase reporter gene assay relative to control; type: functional, cell-based; details: CV-1
T2 sequence (whole entry): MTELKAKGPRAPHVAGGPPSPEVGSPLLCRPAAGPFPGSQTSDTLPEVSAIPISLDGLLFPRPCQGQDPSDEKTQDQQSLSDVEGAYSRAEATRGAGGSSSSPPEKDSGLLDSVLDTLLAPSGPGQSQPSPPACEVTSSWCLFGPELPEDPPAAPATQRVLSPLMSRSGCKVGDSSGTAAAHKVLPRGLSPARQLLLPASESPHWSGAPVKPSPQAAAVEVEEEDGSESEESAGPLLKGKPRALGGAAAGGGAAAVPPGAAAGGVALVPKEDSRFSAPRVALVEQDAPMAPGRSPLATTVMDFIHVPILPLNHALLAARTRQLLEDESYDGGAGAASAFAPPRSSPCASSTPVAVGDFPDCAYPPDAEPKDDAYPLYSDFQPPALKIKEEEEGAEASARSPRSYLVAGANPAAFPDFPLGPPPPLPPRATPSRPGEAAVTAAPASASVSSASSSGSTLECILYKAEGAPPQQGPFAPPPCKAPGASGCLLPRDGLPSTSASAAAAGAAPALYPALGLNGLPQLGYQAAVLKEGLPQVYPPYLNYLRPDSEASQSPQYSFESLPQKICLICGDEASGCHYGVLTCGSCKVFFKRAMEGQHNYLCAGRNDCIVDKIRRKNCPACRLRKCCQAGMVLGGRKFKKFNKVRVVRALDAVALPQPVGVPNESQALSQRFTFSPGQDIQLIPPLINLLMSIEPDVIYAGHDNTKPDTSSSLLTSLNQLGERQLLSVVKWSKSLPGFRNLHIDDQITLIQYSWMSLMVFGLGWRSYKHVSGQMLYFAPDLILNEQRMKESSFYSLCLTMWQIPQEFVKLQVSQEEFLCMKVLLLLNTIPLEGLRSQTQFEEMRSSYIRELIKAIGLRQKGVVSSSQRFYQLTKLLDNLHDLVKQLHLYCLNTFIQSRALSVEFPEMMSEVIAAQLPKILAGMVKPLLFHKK

[13] = Tmax in CD rat at 3 mg/kg, po; type: ADME, organism-based; parameters: dose 3 mg/kg, route oral; details: in vivo
[14] = target: T3, Peroxisome proliferator-activated receptor gamma (Homo sapiens) (UniProt P37231); assay: Antagonist activity at PPARgamma expressed in african green monkey CV1 cells co-expressing PPRE by luciferase reporter gene assay; type: functional, cell-based; details: CV-1
T3 sequence (whole entry): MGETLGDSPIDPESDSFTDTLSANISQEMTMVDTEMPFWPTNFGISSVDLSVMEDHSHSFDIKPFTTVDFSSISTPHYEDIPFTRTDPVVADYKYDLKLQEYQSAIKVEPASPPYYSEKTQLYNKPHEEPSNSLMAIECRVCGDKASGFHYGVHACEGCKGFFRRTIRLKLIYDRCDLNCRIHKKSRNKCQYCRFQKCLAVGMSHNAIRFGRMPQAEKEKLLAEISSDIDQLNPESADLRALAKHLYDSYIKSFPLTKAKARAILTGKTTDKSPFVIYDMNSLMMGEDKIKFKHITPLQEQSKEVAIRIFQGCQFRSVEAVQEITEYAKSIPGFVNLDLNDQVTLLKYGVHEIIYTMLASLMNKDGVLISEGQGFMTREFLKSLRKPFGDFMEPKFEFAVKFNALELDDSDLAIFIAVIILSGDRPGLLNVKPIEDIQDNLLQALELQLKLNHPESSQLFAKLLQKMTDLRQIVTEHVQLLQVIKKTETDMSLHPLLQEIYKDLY

[15] = target: Steroid hormone receptor ERR2 (Homo sapiens) (UniProt O95718); assay: Antagonist activity at ERRbeta expressed in african green monkey CV1 cells by luciferase reporter gene assay; type: functional, cell-based; details: CV-1
Steroid hormone receptor ERR2 (Homo sapiens), sequence (O95718 whole entry): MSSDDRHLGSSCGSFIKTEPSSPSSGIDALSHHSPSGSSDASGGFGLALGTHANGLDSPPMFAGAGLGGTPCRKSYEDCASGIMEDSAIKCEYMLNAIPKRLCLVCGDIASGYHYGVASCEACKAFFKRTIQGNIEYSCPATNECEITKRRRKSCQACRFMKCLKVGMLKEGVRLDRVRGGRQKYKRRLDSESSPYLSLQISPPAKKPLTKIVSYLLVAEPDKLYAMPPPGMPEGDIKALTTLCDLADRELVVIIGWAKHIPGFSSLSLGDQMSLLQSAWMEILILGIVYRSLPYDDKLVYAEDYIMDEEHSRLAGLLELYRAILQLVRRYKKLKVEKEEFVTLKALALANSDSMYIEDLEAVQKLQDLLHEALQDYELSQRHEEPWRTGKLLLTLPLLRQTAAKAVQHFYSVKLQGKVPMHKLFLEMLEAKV

Nuclear receptor subfamily 1 group I member 2, sequence (O75469 whole entry): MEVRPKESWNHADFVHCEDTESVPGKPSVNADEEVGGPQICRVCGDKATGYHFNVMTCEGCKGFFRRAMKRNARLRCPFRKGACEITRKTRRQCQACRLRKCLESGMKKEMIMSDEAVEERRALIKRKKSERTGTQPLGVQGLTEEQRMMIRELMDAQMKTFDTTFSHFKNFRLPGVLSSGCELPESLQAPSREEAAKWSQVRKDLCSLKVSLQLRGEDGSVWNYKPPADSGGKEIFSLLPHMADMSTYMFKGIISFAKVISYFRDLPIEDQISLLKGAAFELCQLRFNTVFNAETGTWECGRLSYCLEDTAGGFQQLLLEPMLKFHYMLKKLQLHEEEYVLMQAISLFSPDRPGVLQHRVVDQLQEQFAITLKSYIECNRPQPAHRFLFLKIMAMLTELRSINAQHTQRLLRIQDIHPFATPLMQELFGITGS

CC(C)OC(=O)C1=CN(C(=O)c2ccc(F)c(F)c2)CC(C)(C)c2c1[nH]c1ccccc21 [TUROFEXORATE ISOPROPYL]
Activity [1]: Not Active | Activity [2]: inactive | Activity [3]: inactive | half-life [4]: 40.1 h | Activity [5]: inactive | Cmax [6]: 30.5 µM | Activity [7]: 78.1 mg/dL | Activity [8]: inactive | Tmax [9]: 1.2 min | Activity [10]: 23% | Activity [11]: inactive | Activity [12]: inactive | Tmax [13]: 10 h | Activity [14]: inactive | Activity [15]: inactive
